Reference: patent US6159733A, “Method for photoinactivating malignant cells” (priority 1996, dated 2000)

How the values were obtained:
[1] = system: BC3A cells; assay: Uptake of Pc 4, flow cytometry; type: cell-based, murine
Protocol: (§1) Cell lines and culture conditions. WEHI-3 (murine myelocytic leukemia), L1210 (murine lymphocytic leukemia) and P815 (murine mastocytoma) cells were grown in RPMI 1640 (GibcoBRL, Grand Island, N.Y.) supplemented with 10% FBS. BC3A (murine leukemia) cells were grown in RPMI 1640 supplemented with 10 μM β-mercaptoethanol and 10% FBS; ABE-8.1/2 (murine pre-B lymphoma) cells were grown in DMEM (GibcoBRL)--10 μM β-mercaptoethanol--10% FBS. All cell lines were obtained from the American Type Culture Collection (Rockville, Md.) and were cultured at 37° C. in a humidified 5% CO2 -incubator. Prior to incubation with Pc 4, the cell lines were centrifuged and resuspended in phosphate buffered saline (PBS)--10% FBS, pH 7.4.
(§2) In mixing experiments, aliquots of Ly-5.2 BM and cell lines samples were mixed at different ratios. The combined cell concentration of each sample was 1.5×10^7 cells/mL. […] The cell lines were stained with anti-Ly-5.1^FITC. This treatment allowed clear resolution of the relatively small ABE-8.1/2 and BC3A cells from the bone marrow granulocytes. Immediately prior to the analyses, propidium iodide (PI, 0.5 μg/mL) was added to the samples to allow exclusion of dead cells (PI^+) from the analyses. The samples were analyzed in a FACStar^PLUS (BD) that was equipped with an argon ion laser tuned to 488 nm (200 mW) and a dye laser tuned to 610 nm (300 mW). FITC, PE, PI and Pc 4 fluorescence emissions were collected through 530/30, 575/42, 660/10, 670/10 nm band pass filters, respectively.
(§3) Cell size. Microscopic measurements of at least 20 cells were performed using a calibrated micrometer. To determine the cell size of the BM progenitor subsets, the c-kit^+,Sca-1^- and c-kit^+,Sca-1^+ fractions were sorted. The sorted cells were centrifuged and the pellets were resuspended in a 20 μl of HBBS. Samples were deposited onto microscope slides and covered with a cover slip. Cell diameters of 7.7±0.2 (c-kit^+,Sca-1^+), 8.4±0.3 (c-kit^+,Sca-1^-), 10.9±0.2 (BC3A), 11.1±0.2 (ABE-8.1/2), 13.0±0.3 (L1210), 14.2±0.3 (P815), 15.0±0.4 μm (WEHI-3) were obtained.

[2] = system: L1210 cells; assay: Uptake of Pc 4, flow cytometry; type: cell-based, murine; settings: for Pc 4 content / Pc 4 content per cell volume: 15 nM
Protocol: as §1, §2, §3

[3] = system: ABE-8.1/2 cells; assay: Uptake of Pc 4 in mixtures of BM and cell lines; type: cell-based, murine
Protocol: as §2

[4] = system: BC3A cells; assay: Uptake of Pc 4 in mixtures of BM and cell lines; type: cell-based, murine; settings: for Pc 4 content in cell line: BM/BC3A
Protocol: as §2

[5] = system: BM progenitors (c-kit^+); assay: Uptake of Pc 4 in mixtures of BM and cell lines; type: cell-based, murine
Protocol: as §2

[6] = system: L1210 cells; assay: Uptake of Pc 4 in mixtures of BM and cell lines; type: cell-based, murine
Protocol: as §2

[7] = system: P815 cells; assay: Uptake of Pc 4 in mixtures of BM and cell lines; type: cell-based, murine
Protocol: as §2

[8] = system: WEHI-3 cells; assay: Uptake of Pc 4 in mixtures of BM and cell lines; type: cell-based, murine
Protocol: as §2

[9] = system: parasites; settings: blood products; cited from earlier work
[10] = system: V79; settings: cited from earlier work
[11] = 15 nM, 1.5×10^6 cells/ml during incubation
[12] = 15 nM, 1.5×10^7 cells/ml during incubation
[13] = from 8.0×10^5 to 1.5×10^7 cells/mL
[14] = 1.5×10^6 cells/ml during incubation
[15] = 1.5×10^7 cells/ml during incubation
[16] = versus 1.5×10^7 cells/mL without BM

With `CN(C)CCC[Si](C)(C)O[Si]1(O)n2c3c4ccccc4c2N=C2N=C(N=c4c5ccccc5c(n41)=NC1=NC(=N3)c3ccccc31)c1ccccc12` (stereo not drawn) [Pc 4, hydroxysiloxy-dimethylpropyl-N-dimethyl silicon phthalocyanine] the “cell concentration at which uptake reached a plateau” value ([1]; 15 nM) was 8.0×10^5 cells/mL, the “Pc 4 content” value [1, 11] was 137 ± 11.3 Mean fluorescence/cell and the “Pc 4 content per cell volume” value [1, 11] was 0.20 Mean fluorescence/μm^3. The “Pc 4 content” value [1, 12] was 80 ± 5.5 Mean fluorescence/cell, the “Pc 4 content per cell volume” value [1, 12] was 0.12 Mean fluorescence/μm^3 and the “reduction of Pc 4 uptake” value [1, 13] was 1.6 fold. For the same compound, the “Pc 4 content” value [2, 14] was 291 ± 14.0 Mean fluorescence/cell, the “Pc 4 content per cell volume” value [2, 14] was 0.25 Mean fluorescence/μm^3 and the “Pc 4 content” value [2, 15] was 124 ± 4.2 Mean fluorescence/cell. For the same compound, the “Pc 4 content per cell volume” value [2, 15] was 0.11 Mean fluorescence/μm^3, the “reduction of Pc 4 uptake” value [2, 13] was 2.5 fold and the “Pc 4 uptake in mixtures versus cell line alone” value ([3]; BM fraction<0.9, versus without BM) was “lower”. For the same compound, the “Pc 4 content in cell line” value ([3]; BM/ABE-8.1/2, BM fraction 0.50) was 74 Mean fluorescence/cell, the “Pc 4 content in cell line” value ([3]; BM/ABE-8.1/2, BM fraction 0.70) was 86 Mean fluorescence/cell and the “Pc 4 content in cell line” value ([3]; BM/ABE-8.1/2, BM fraction 0.80) was 91 Mean fluorescence/cell. For the same compound, the “Pc 4 content in cell line” value ([3]; BM/ABE-8.1/2, BM fraction 0.90) was 95 Mean fluorescence/cell, the “Pc 4 content in cell line” value ([3]; BM/ABE-8.1/2, BM fraction 0.95) was 100 Mean fluorescence/cell and the “Pc 4 content in cell line” value ([4]; BM fraction 0.50) was 104 Mean fluorescence/cell. The “Pc 4 content in cell line” value ([4]; BM fraction 0.70) was 26 Mean fluorescence/cell, the “Pc 4 content in cell line” value ([4]; BM fraction 0.80) was 138 Mean fluorescence/cell and the “Pc 4 content in cell line” value ([4]; BM fraction 0.90) was 153 Mean fluorescence/cell. The “Pc 4 content in cell line” value ([4]; BM fraction 0.95) was 166 Mean fluorescence/cell, the “Pc 4 uptake in mixtures versus cell line alone” value [4, 16] was “contained more Pc 4” and the “Pc 4 content in c-kit^+ BM” value ([5]; BM/ABE-8.1/2, BM fraction 0.50) was 48 Mean fluorescence/cell. For the same compound, the “Pc 4 content in c-kit^+ BM” value ([5]; BM/ABE-8.1/2, BM fraction 0.70) was 52 Mean fluorescence/cell, the “Pc 4 content in c-kit^+ BM” value ([5]; BM/ABE-8.1/2, BM fraction 0.80) was 49 Mean fluorescence/cell and the “Pc 4 content in c-kit^+ BM” value ([5]; BM/ABE-8.1/2, BM fraction 0.90) was 55 Mean fluorescence/cell. The “Pc 4 content in c-kit^+ BM” value ([5]; BM/ABE-8.1/2, BM fraction 0.95) was 62 Mean fluorescence/cell, the “Pc 4 content in c-kit^+ BM” value ([5]; BM/BC3A, BM fraction 0.50) was 48 Mean fluorescence/cell and the “Pc 4 content in c-kit^+ BM” value ([5]; BM/BC3A, BM fraction 0.70) was 53 Mean fluorescence/cell. For the same compound, the “Pc 4 content in c-kit^+ BM” value ([5]; BM/BC3A, BM fraction 0.80) was 61 Mean fluorescence/cell, the “Pc 4 content in c-kit^+ BM” value ([5]; BM/BC3A, BM fraction 0.90) was 68 Mean fluorescence/cell and the “Pc 4 content in c-kit^+ BM” value ([5]; BM/BC3A, BM fraction 0.95) was 64 Mean fluorescence/cell. The “Pc 4 content in c-kit^+ BM” value ([5]; BM/L1210, BM fraction 0.50) was 35 Mean fluorescence/cell, the “Pc 4 content in c-kit^+ BM” value ([5]; BM/L1210, BM fraction 0.70) was 43 Mean fluorescence/cell and the “Pc 4 content in c-kit^+ BM” value ([5]; BM/L1210, BM fraction 0.80) was 48 Mean fluorescence/cell. For the same compound, the “Pc 4 content in c-kit^+ BM” value ([5]; BM/L1210, BM fraction 0.90) was 54 Mean fluorescence/cell, the “Pc 4 content in c-kit^+ BM” value ([5]; BM/L1210, BM fraction 0.95) was 60 Mean fluorescence/cell and the “Pc 4 content in c-kit^+ BM” value ([5]; BM/P815, BM fraction 0.50) was 45 Mean fluorescence/cell. The “Pc 4 content in c-kit^+ BM” value ([5]; BM/P815, BM fraction 0.70) was 51 Mean fluorescence/cell, the “Pc 4 content in c-kit^+ BM” value ([5]; BM/P815, BM fraction 0.80) was 64 Mean fluorescence/cell and the “Pc 4 content in c-kit^+ BM” value ([5]; BM/P815, BM fraction 0.90) was 63 Mean fluorescence/cell. For the same compound, the “Pc 4 content in c-kit^+ BM” value ([5]; BM/P815, BM fraction 0.95) was 64 Mean fluorescence/cell, the “Pc 4 content in c-kit^+ BM” value ([5]; BM/WEHI-3, BM fraction 0.50) was 30 Mean fluorescence/cell and the “Pc 4 content in c-kit^+ BM” value ([5]; BM/WEHI-3, BM fraction 0.70) was 38 Mean fluorescence/cell. For the same compound, the “Pc 4 content in c-kit^+ BM” value ([5]; BM/WEHI-3, BM fraction 0.80) was 46 Mean fluorescence/cell, the “Pc 4 content in c-kit^+ BM” value ([5]; BM/WEHI-3, BM fraction 0.90) was 58 Mean fluorescence/cell and the “Pc 4 content in c-kit^+ BM” value ([5]; BM/WEHI-3, BM fraction 0.95) was 65 Mean fluorescence/cell. For the same compound, the “Pc 4 uptake of BM progenitor fractions in mixtures versus BM alone” value ([5]; all mixtures (p>0.07)) was “lower, though not significantly”, the “Pc 4 content in cell line” value ([6]; BM/L1210, BM fraction 0.50) was 153 Mean fluorescence/cell and the “Pc 4 content in cell line” value ([6]; BM/L1210, BM fraction 0.70) was 189 Mean fluorescence/cell. The “Pc 4 content in cell line” value ([6]; BM/L1210, BM fraction 0.80) was 210 Mean fluorescence/cell, the “Pc 4 content in cell line” value ([6]; BM/L1210, BM fraction 0.90) was 242 Mean fluorescence/cell and the “Pc 4 content in cell line” value ([6]; BM/L1210, BM fraction 0.95) was 260 Mean fluorescence/cell. The “Pc 4 uptake in mixtures versus cell line alone” value [6, 16] was “contained more Pc 4”, the “Pc 4 content in cell line” value ([7]; BM/P815, BM fraction 0.50) was 205 Mean fluorescence/cell and the “Pc 4 content in cell line” value ([7]; BM/P815, BM fraction 0.70) was 241 Mean fluorescence/cell. The “Pc 4 content in cell line” value ([7]; BM/P815, BM fraction 0.80) was 270 Mean fluorescence/cell, the “Pc 4 content in cell line” value ([7]; BM/P815, BM fraction 0.90) was 312 Mean fluorescence/cell and the “Pc 4 content in cell line” value ([7]; BM/P815, BM fraction 0.95) was 335 Mean fluorescence/cell. The “Pc 4 uptake in mixtures versus cell line alone” value [7, 16] was “contained more Pc 4”, the “Pc 4 content in cell line” value ([8]; BM/WEHI-3, BM fraction 0.50) was 106 Mean fluorescence/cell and the “Pc 4 content in cell line” value ([8]; BM/WEHI-3, BM fraction 0.70) was 140 Mean fluorescence/cell. For the same compound, the “Pc 4 content in cell line” value ([8]; BM/WEHI-3, BM fraction 0.80) was 164 Mean fluorescence/cell, the “Pc 4 content in cell line” value ([8]; BM/WEHI-3, BM fraction 0.90) was 204 Mean fluorescence/cell and the “Pc 4 content in cell line” value ([8]; BM/WEHI-3, BM fraction 0.95) was 229 Mean fluorescence/cell. The “Pc 4 uptake in mixtures versus cell line alone” value [8, 16] was “contained more Pc 4”, the photoinactivation of parasites [9] was “effectively photoinactivate” and the “photoinactivation of V79 cells” value [10] was “effectively photoinactivate”.
